Assay results from patent US11708351B2 (Achillion Pharmaceuticals, Inc., priority 2017, dated 2023).
pIC50: −log10 of the molar value.

The molecules below were run against Human Factor D (Homo sapiens (Human), UniProt P00746) (assay: Human Factor D Assay). Conditions: Factor D inhibition, assay of Example 10; read-out: IC50 (Stars).
Assay type: biochemical
Method: Human Factor D (purified from human serum, Complement Technology, Inc.) at 80 nM final concentration is incubated with test compound at various concentrations for 5 min at room temperature in 50 mM Tris, 1M NaCl, pH 7.5. A synthetic substrate Z-L-Lys-SBzl and DTNB (Ellman's reagent) are added to final concentrations of 100 μM each. Absorbance at 405 nm (A405) is recorded at 30 second intervals for 30 min using a microplate spectrophotometer. IC50 values are calculated by nonlinear regression of complement Factor D reaction rates as a function of test compound concentration.

Sequence of Human Factor D (P00746 26-253): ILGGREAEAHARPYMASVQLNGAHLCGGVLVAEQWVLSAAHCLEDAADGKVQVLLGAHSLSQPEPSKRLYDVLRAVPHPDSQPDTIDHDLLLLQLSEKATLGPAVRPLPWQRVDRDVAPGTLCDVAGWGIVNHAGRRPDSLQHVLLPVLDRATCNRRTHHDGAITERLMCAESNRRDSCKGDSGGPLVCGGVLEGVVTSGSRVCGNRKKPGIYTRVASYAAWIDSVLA

Row | Molecule | pIC50
1 | CC(=O)c1nn(CC(=O)N2[C@H](C(=O)Nc3nc(Br)c(F)cc3C)C[C@@]3(CN(CCO)CCO)C[C@@H]23)c2cnc(-c3cnc(C)nc3)cc12 [Compound 248, (1R,3S,5R)-2-(2-(3-acetyl-5-(2-methylpyrimidin-5-yl)-1H-pyrazolo[3,4-c]pyridin-1-yl)acetyl)-5-((bis(2-hydroxy-ethyl)amino)methyl)-N-(6-bromo-5-fluoro-3-methylpyridin-2-yl)-2-azabicyclo[3.1.0]hexane-3-carboxamide] | > 6.00
2 | CC(=O)c1nn(CC(=O)N2[C@H](C(=O)Nc3nc(Br)ccc3COCCF)C[C@@]3(C)C[C@@H]23)c2ccc(-c3cnc(C)nc3)cc12 [Compound 301, (1R,3S,5R)-2-(2-(3-acetyl-5-(2-methylpyrimidin-5-yl)-1H-indazol-1-yl)acetyl)-N-(6-bromo-3-((2-fluoro-ethoxy)methyl)pyridin-2-yl)-5-methyl-2-azabicyclo[3.1.0]hexane-3-carboxamide] | > 6.00
3 | CC(=O)c1nn(CC(=O)N2[C@H](C(=O)Nc3nc(Br)ccc3C)C[C@@]3(C)C[C@@H]23)c2cnc(-c3cnc(C)cn3)cc12 [Compound 303] | > 6.00
4 | CC(=O)c1nn(CC(=O)N(C(=O)[C@@H]2C[C@@]3(C)C[C@H]3N2)c2cccc(Br)n2)c2cnc(-c3cnc(C)nc3)cc12 [Compound 334, (1R,3S,5R)-2-(2-(3-acetyl-5-(2-methylpyrimidin-5-yl)-1H-pyrazolo[3,4-c]pyridin-1-yl)acetyl)-N-(6-bromopyridin-2-yl)-5-methyl-2-azabicyclo[3.1.0]hexane-3-carboxamide] | > 6.00
5 | CC(=O)c1nn(CC(=O)N2[C@H](C(=O)Nc3nc(Br)c(F)cc3C)C[C@@]3(CC#N)C[C@@H]23)c2cnc(-c3cnc(C)nc3)cc12 [Compound 249, (1R,3S,5R)-2-(2-(3-acetyl-5-(2-methylpyrimidin-5-yl)-1H-pyrazolo[3,4-c]pyridin-1-yl)acetyl)-N-(6-bromo-5-fluoro-3-methylpyridin-2-yl)-5-(cyanomethyl)-2-azabicyclo[3.1.0]hexane-3-carboxamide] | > 6.00
6 | COCc1ncc(-c2ccc3c(c2)c(C(C)=O)nn3CC(=O)N2[C@H](C(=O)Nc3nc(Br)ccc3C)C[C@@]3(C)C[C@@H]23)cn1 [Compound 278, (1R,3S,5R)-2-(2-(3-acetyl-5-(2-(methoxymethyl)py-rimidin-5-yl)-1H-indazol-1-yl)acetyl)-N-(6-bromo-3-methylpyridin-2-yl)-5-methyl-2-azabicyclo[3.1.0]hexane-3-carboxamide] | > 6.00

Same assay, conditions: Table 6; Factor D 80 nM, substrate Z-L-Lys-SBzl; read-out: IC50

Row | Molecule | pIC50
7 | CC(=O)c1nn(CC(=O)N2C[C@H]3C[C@H]3[C@H]2C(=O)N2C[C@H]3C[C@H]3[C@H]2C(=O)Nc2nc(Br)ccc2C)c2c(C)cc(-c3cnc(C)nc3)cc12 [Compound 92, (1R,2S,5S)-3-((1R,2S,5S)-3-(2-(3-acetyl-7-methyl-5-(2-methylpyrimidin-5-yl)-1H-indazol-1-yl)acetyl)-3-azabicyclo[3.1.0]hexane-2-carbonyl)-N-(6-bromo-3-methylpyridin-2-yl)-3-azabicyclo[3.1.0] hexane-2-carboxamide] | 5.00 to 6.00
8 | CC(=O)c1c2cc(-c3cnc(C)nc3)cc(C(F)(F)F)c2nn1CC(=O)N1[C@H](C(=O)Nc2nc(Br)ccc2C)C[C@@]2(C)C[C@@H]12 [Compound 217, (1R,3S,5R)-2-(2-(3-acetyl-5-(2-methylpyrimidin-5-yl)-7-(trifluoromethyl)-2H-indazol-2-yl)acetyl)-N-(6-bromo-3-methylpyridin-2-yl)-5-methyl-2-azabicyclo[3.1.0] hexane-3-carboxamide] | < 5.00
9 | CC(=O)c1nn(CC(=O)N2[C@H](C(=O)O)C[C@@]3(C)C[C@@H]23)c2c(C)cc(-c3cnc(C)nc3)cc12 [Compound 126, (1R,3S,5R)-2-(2-(3-acetyl-7-methyl-5-(2-methylpyrimidin-5-yl)-1H-indazol-1-yl)acetyl)-5-methyl-2-azabicyclo[3.1.0] hexane-3-carboxylic acid] | < 5.00
10 | (3S)-5-(3-Azabicyclo[3.1.1]heptan-3-ylmethyl)-2-(2-(3-acetyl-5-(2-methylpyrimidin-5-yl)-1H-indazol-1-yl)acetyl)-N-(6-bromo-3-methylpyridin-2-yl)-2-azabicyclo[3.1.0]hexane-3-carboxamide [Compound 13] | > 6.00
11 | CC(=O)c1nn(CC(=O)N2[C@H](C(=O)Nc3nc(Br)ccc3C)C[C@@]3(C)C[C@@H]23)c2c(CN(C)C)cc(-c3cnc(C)nc3)cc12 [Compound 167, (1R,3S,5R)-2-(2-(3-Acetyl-7-((dimethylamino)methyl)-5-(2-methylpyrimidin-5-yl)-1H-indazol-1-yl)acetyl)-N-(6-bromo-3-methylpyridin-2-yl)-5-methyl-2-azabicyclo[3.1.0]hexane-3-carboxamide] | > 6.00

Same assay, conditions: Table 7; Factor D inhibition, assay of Example 10; read-out: IC50 (Stars)

Row | Molecule | pIC50
12 | CC(=O)c1nn(CC(=O)N2[C@H](C(=O)Nc3cc(-c4ccccc4O)cc(Br)n3)C[C@@]3(C)C[C@@H]23)c2ccc(-c3cnc(C)nc3)cc12 [Compound 556, (1R,3S,5R)-2-(2-(3-acetyl-5-(2-methylpyrimidin-5-yl)-1H-indazol-1-yl)acetyl)-N-(6-bromo-4-(2-hydroxyphenyl)pyridin-2-yl)-5-methyl-2-azabicyclo[3.1.0]hexane-3-carboxamide] | > 6.00

Same assay, conditions: Table 8; Factor D 80 nM, substrate Z-L-Lys-SBzl; read-out: IC50

Row | Molecule | pIC50
13 | CC(=O)c1nn(CC(=O)N2[C@H](C(=O)Nc3nc(Br)ccc3C)C[C@@]3(CNC(=O)COCCOCCNC(=O)COCCOCCNC(=O)CC[C@H](NC(=O)CCCCCCCCCCCCCCCCC(=O)O)C(=O)O)C[C@@H]23)c2ccc(-c3cnc(C)nc3)cc12 [Compound 379, (S)-1-((1R,3S,5R)-2-(2-(3-acetyl-5-(2-methylpyrimidin-5-yl)-1H-indazol-1-yl)acetyl)-3-((6-bromo-3-methylpyridin-2-yl)carbamoyl)-2-azabicyclo[3.1.0]hexan-5-yl)-24-carboxy-3,12,21,26-tetraoxo-5,8,14,17-tetraoxa-2,11,20,25-tetraazatritetracontan-43-oic acid] | > 6.00
14 | COC(=O)CCCCCCCCCCCCCCCCC(=O)N[C@@H](CCC(=O)NCCOCCOCC(=O)NCCOCCOCC(=O)NCc1ncc(-c2cc(C)c3c(c2)c(C(C)=O)nn3CC(=O)N2[C@H](C(=O)Nc3nc(Br)ccc3C)C[C@@]3(C)C[C@@H]23)cn1)C(=O)OC [Compound 403, (S)-methyl 1-(5-(3-acetyl-1-(2-((1R,3S,5R)-3-((6-bromo-3-methylpyridin-2-yl)carbamoyl)-5-methyl-2-azabicyclo[3.1.0]hexan-2-yl)-2-oxoethyl)-7-methyl-1H-indazol-5-yl)pyrimidin-2-yl)-24-(methoxycarbonyl)-3,12,21,26-tetraoxo-5,8,14,17-tetraoxa-2,11,20,25-tetraazatritetracontan-43-oate] | > 6.00
